# Laboratory results reported in PubChem BioAssay (NCI).
# “And” between values parts separate entries of the source, which are not always exact repeats. Equal values may be shown once.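 Five concentrations, 48 hours, 96-well plates. GI50 = concentration required for 50% inhibition of growth. The concentration for full growth arrest is given as TGI.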
# Legend:
# Experiment in all cases: DTP human tumour cell line panel, 48 h
# [1] = test system: OVCAR-4 ovarian
# [2] = test system: NCI/ADR-RES ovarian
# [3] = test system: K-562 leukemia
# [4] = test system: HOP-92 NSCLC
# [5] = test system: RXF 393 renal
# [6] = test system: SF-295 CNS
# [7] = test system: LOX IMVI melanoma
# [8] = test system: SF-539 CNS
# [9] = test system: 786-0 renal
# [10] = test system: HOP-62 NSCLC
Structure (SMILES),GI50 [1],TGI [1],GI50 [2],TGI [2],GI50 [3],TGI [3],GI50 [4],TGI [4],GI50 [5],TGI [5],GI50 [6],TGI [6],GI50 [7],TGI [7],GI50 [8],TGI [8],GI50 [9],TGI [9],GI50 [10],TGI [10]
Cc1c(Cl)c(=O)oc2cc(OC/C=C3\CCC(=O)O3)ccc12,15.2 µM,36.1 µM,24.1 µM,59.4 µM,28.2 µM,78.7 µM,13000 nM,30 µM,23500 nM,> 100 µM,62900 nM,> 100 µM,15600 nM,29.7 µM,17400 nM,56.5 µM,12800 nM,29.3 µM,23.6 µM,66.1 µM
Cc1cc(C(=O)/C=C/c2ccc[nH]2)ccc1-n1ccc(C(F)(F)F)n1,3.18 µM,> 100 µM,17.1 µM,> 100 µM,3.43 µM,> 100 µM,11400 nM,> 100 µM,1800 nM,4.74 µM,7970 nM,> 100 µM,34800 nM,> 100 µM,2690 nM,9.13 µM,3540 nM,> 100 µM,34.8 µM,> 100 µM
CC(C)(C)c1cc(C(=O)Nc2ccc(C(=O)NCCN)cc2)cc(C(C)(C)C)c1,2.71 µM,11 µM,14.7 µM,35 µM,1.94 µM,5.06 µM,2820 nM,12.6 µM,1680 nM,3.16 µM,1730 nM,3.47 µM,1650 nM,3.16 µM,1680 nM,3.41 µM,1560 nM,3.07 µM,4.5 µM,21.8 µM
C=CC(COC(=O)C(C)(C)OC(C)=O)c1ccc(OC(=O)C(C)C)c(OC)c1 (stereo not drawn),,22.4 µM,,> 84.9 µM,,> 63.5 µM,,11.7 µM,,19.7 µM,,19.9 µM,,> 33.3 µM,,27.5 µM,,> 24.9 µM,,23.5 µM
Cc1ccc(S(=O)(=O)OCC#CCOS(=O)(=O)c2ccc(C)cc2)cc1,4.81 µM,13.6 µM,2.12 µM,5.93 µM,2.29 µM,10.3 µM,1970 nM,4.17 µM,2220 nM,5.21 µM,1740 nM,3.62 µM,1150 nM,2.56 µM,2500 nM,7.01 µM,2570 nM,7.15 µM,2.35 µM,5.69 µM
CCN(CC)c1c(-c2ccccc2)n[nH]c1C(=O)OC,54.1 µM,> 100 µM,19.2 µM,37.4 µM,31.2 µM,> 100 µM,17800 nM,51.1 µM,21900 nM,56.9 µM,,,35300 nM,> 100 µM,20100 nM,36.5 µM,32700 nM,96.2 µM,44.6 µM,> 100 µM
N#Cc1ccc(-c2c(-c3ncn[nH]3)sc(N3CCOCC3)c2C#N)c(F)c1,2.82 µM,36.6 µM,3.19 µM,> 100 µM,5.52 µM,> 100 µM,66.3 nM,0.973 µM,246 nM,1.68 µM,426 nM,11.4 µM,546 nM,13.1 µM,571 nM,4.53 µM,457 nM,12.1 µM,1.05 µM,21.9 µM
O=[N+]([O-])c1cccc(-c2nc(-c3ccc(Cl)cc3Cl)cn2-c2ccccc2)c1,0.58 µM,1.12 µM,1.56 µM,15.6 µM,> 9.26 µM,> 33.3 µM,105 nM,22.7 µM,823 nM,2.08 µM,452 nM,0.976 µM,2980 nM,> 30.7 µM,1020 nM,4.33 µM,995 nM,2.88 µM,1.39 µM,7.56 µM
C[C@H]1C/C=C/[C@H]2[C@@H]3O[C@]3(C)[C@@H](C)[C@H]3[C@H](Cc4ccccc4)NC(=O)[C@]32OC(=O)O/C=C/[C@@](C)(O)C1=O,0.396 µM,> 79.2 µM and 46.3 µM and > 250 µM,34 µM and 33.3 µM,> 81.9 µM and 125 µM and 160 µM,0.0125 µM and 0.025 µM,91.2 µM and 125 µM and > 250 µM,,0.0591 µM and 0.0877 µM,12.5 nM,,48.4 nM and 25 nM,,< 10 nM and 25 nM,,12.5 nM and 25 nM,,,63.5 µM,0.0125 µM and 0.025 µM,0.185 µM and 0.164 µM and 0.067 µM
OB(O)c1ccccc1C#Cc1ccccc1B(O)O,,,,> 100 µM,,> 100 µM,,> 100 µM,,36.9 µM,,75.9 µM,,51.1 µM,,44.9 µM,,> 100 µM,,83.9 µM
CNCC/C=C1\c2cc3c(cc2-c2c1c1cc(OC)c(OC)cc1c(=O)n2C)OCO3,6.72 µM,44.8 µM,3.74 µM,> 45.2 µM,0.196 µM,,301 nM,2.74 µM,1510 nM,14.9 µM,81.1 nM,15.6 µM,510 nM,2.57 µM,400 nM,5.85 µM,587 nM,33 µM,0.596 µM,21.9 µM
C/C=C/C/C=C/[C@H](C)C[C@H](O)[C@@H]1C[C@@H]2O[C@H]2/C=C/[C@@H]2OC(C)(C)O[C@H]2/C=C/C[C@H](C)CC(=O)O1,9.9 µM,> 100 µM,3.28 µM,> 100 µM,4.79 µM,> 100 µM,6710 nM,91.6 µM,30400 nM,> 100 µM,6060 nM,60.8 µM,7620 nM,> 100 µM,26300 nM,> 100 µM,69700 nM,> 100 µM,15.1 µM,90.2 µM
O=S(=O)(NCCNc1nccc(-c2c(-c3ccc(F)c(O)c3)nc3sccn23)n1)c1ccc(Cl)cc1,2.79 µM,> 50 µM,1.79 µM,17.5 µM,,,2390 nM,13.8 µM,651 nM,4.7 µM,2350 nM,14.2 µM,1780 nM,> 50 µM,5090 nM,11.9 µM,3380 nM,13.6 µM,6.17 µM,21.5 µM
